Data: patent publication US20180148418A1, “AMIDO-SUBSTITUTED CYCLOHEXANE DERIVATIVES” (Bayer Pharma Aktiengesellschaft, priority 2015, published 2018)
Counter-ions that a name gives are not always drawn.

Biological target: T1, TNKS1 (Homo sapiens, UniProt O95271)
T1 construct: purchased BPS Bioscience, San Diego, USA 80579 (TNKS1 Histone Ribosylation Assay Kit)
T1 sequence (O95271 1-1327): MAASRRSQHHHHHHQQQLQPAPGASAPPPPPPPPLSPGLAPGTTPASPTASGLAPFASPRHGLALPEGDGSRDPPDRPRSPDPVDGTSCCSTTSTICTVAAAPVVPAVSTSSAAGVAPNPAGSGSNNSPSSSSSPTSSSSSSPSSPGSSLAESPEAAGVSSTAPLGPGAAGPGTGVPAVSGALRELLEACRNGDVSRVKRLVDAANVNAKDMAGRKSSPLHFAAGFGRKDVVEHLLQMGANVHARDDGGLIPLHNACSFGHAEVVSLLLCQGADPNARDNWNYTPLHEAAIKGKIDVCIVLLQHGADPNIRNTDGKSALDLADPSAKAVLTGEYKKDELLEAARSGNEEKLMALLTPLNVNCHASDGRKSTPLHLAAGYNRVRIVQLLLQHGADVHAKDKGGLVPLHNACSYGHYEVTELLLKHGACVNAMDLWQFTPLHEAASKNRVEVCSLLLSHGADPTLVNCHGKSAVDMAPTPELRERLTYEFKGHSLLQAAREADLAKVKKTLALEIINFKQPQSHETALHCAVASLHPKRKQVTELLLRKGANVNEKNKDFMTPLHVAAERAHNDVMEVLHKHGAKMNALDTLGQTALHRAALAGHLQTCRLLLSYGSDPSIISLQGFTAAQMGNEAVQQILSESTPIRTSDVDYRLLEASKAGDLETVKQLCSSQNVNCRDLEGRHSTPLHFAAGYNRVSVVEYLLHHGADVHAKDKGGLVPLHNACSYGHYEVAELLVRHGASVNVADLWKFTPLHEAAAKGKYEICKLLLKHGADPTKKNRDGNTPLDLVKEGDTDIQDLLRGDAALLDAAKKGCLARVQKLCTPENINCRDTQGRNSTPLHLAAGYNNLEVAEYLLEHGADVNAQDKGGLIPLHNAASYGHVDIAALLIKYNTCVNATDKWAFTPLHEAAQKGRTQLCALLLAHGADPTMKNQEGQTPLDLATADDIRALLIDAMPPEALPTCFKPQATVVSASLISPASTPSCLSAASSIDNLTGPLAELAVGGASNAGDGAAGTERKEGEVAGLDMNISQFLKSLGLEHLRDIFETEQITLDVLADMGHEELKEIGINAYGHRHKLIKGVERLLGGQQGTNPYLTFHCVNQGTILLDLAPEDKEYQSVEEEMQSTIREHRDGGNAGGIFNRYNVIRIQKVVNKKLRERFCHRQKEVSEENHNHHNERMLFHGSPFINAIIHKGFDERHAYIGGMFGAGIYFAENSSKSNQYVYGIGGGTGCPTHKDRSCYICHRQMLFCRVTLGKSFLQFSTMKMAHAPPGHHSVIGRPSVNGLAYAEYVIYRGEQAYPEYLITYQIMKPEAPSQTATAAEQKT
Experiment: TNKS1 Assay B (auto-parsylation, [3H]-NAD+ SPA)
Assay type: biochemical
Settings: 6 nM TNKS1, auto-parsylation, over night at room temperature

Row | SMILES | IC50 [nM]
1 | CNC(=O)c1[nH]cnc1C(=O)NC1CCC(C(=O)Nc2ccc(F)cc2Cl)CC1C (racemic) [Example 39, N^4-{4-[(2-chloro-4-fluorophenyl)carbamoyl]-2-methylcyclohexyl}-N^5-methyl-1H-imidazole-4,5-dicarboxamide] | 380
2 | Cc1c(C(C)N(C)C)cnc2c(C(=O)N[C@H]3CC[C@H](C(=O)Nc4ccc(F)cc4Cl)CC3)cnn12 (mixture of isomers) [Example 55, N-{trans-4-[(2-chloro-4-fluorophenyl)carbamoyl]cyclohexyl}-6-[1-(dimethylamino)ethyl]-7-methylpyrazolo[1,5-a]pyrimidine-3-carboxamide formic acid salt] | 740
3 | CNC(C)c1cnc2c(C(=O)N[C@H]3CC[C@H](C(=O)Nc4ccc(F)cc4Cl)CC3)cnn2c1C (stereo partly drawn) [Example 54, N-{trans-4-[(2-chloro-4-fluorophenyl)carbamoyl]cyclohexyl}-7-methyl-6-[1-(methylamino)ethyl]pyrazolo[1,5-a]pyrimidine-3-carboxamide formic acid salt] | 460

The next lines start with the values.

Row | IC50 [nM] | SMILES
4 | 550 | O=C(NCCN1CCCCC1)c1nc[nH]c1C(=O)N[C@H]1CC[C@H](C(=O)Nc2ccc(F)cc2Cl)CC1 [Example 2, N^5-{trans-4-[(2-chloro-4-fluorophenyl)carbamoyl]cyclohexyl}-N^4-[2-(piperidin-1-yl)ethyl]-1H-imidazole-4,5-dicarboxamide]
5 | 2800 | COCC(C)NC(=O)c1nc[nH]c1C(=O)N[C@H]1CC[C@H](C(=O)Nc2cc(N3CCOCC3)ccc2Cl)CC1 (stereo partly drawn) [Example 91, N^5-(trans-4-{[2-chloro-5-(morpholin-4-yl)phenyl]carbamoyl}cyclohexyl)-N^4-(1-methoxypropan-2-yl)-1H-imidazole-4,5-dicarboxamide]
